Experimental data from US20230000876A1, “TREATING CANCERS WITH A CYCLIN-DEPENDENT KINASE INHIBITOR” (Nuvation Bio Inc., priority 2021, published 2023).

Columns and labels:
22Rv1 tumors = assay: 22Rv1 prostate tumor model (Example 3); type: in vivo, male Balb/c nude mice; settings: for T/C / TGI: PG-D24
Method: The in vivo anti-tumor efficacy of the compound of formula (I) either alone or in combination with enzalutamide prostate tumor model on male Balb/c nude mice was evaluated. The cell line is derived from a xenograft that was serially propagated in mice after castration—induced regression and relapse of the parental, androgen-dependent CWR22 xenograft.
In the study, the compound of formula (I) was dosed orally (po) once daily (QD) and enzalutamide, when administered, was dosed orally once daily for 25 days, as shown in Table 8.
The 22Rv1 tumor cells were maintained in vitro in RPMI1640 medium supplemented with 10% heat inactivated fetal bovine serum at 37° C. in an atmosphere of 5% CO2 in air. The tumor cells were routinely subcultured twice weekly. The cells growing in an exponential growth phase were harvested and counted for tumor inoculation.
Each mouse was inoculated subcutaneously at the right flank with 22Rv1 tumor cells (5*10^6) with 50% Matrigel for tumor development. The treatments were started on day 7 after tumor inoculation when the average tumor volume reached 94 mm^3. A total of 48 mice were selected and assigned into 6 groups. The testing articles were administrated to the mice according to Table 8.
The major endpoint was to see if the tumor growth could be delayed or mice could be cured. Tumor size was measured twice weekly in two dimensions using a caliper, and the volume was expressed in mm^3 using the formula: V=0.5 a×b^2 where a and b are the long and short diameters of the tumor, respectively. The tumor sizes are then used for the calculation of T/C and TGI values.
The T/C value (in percent) is an indication of antitumor effectiveness; T and C are the mean volume of the treated and control groups, respectively, on a given day.
TGI was calculated for each group using the formula: TGI (%)=[1−(Ti−T0)/(Vi−V0)]×100; Ti is the average tumor volume of a treatment group on PG-Di, T0 is the average tumor volume of the treatment group on the day of treatment start, Vi is the average tumor volume of the vehicle control group on the same day with Ti, and V0 is the average tumor volume of the vehicle group on the day of treatment start.
All groups were taken down on PG-D24 and PG-D25 when the average tumor size of vehicle group reached 2305 mm^3.
Summary statistics, including mean and the standard error of the mean (SEM), are provided for the tumor volume of each group at each time point. For comparison among groups, a one-way ANOVA was performed. All the analysis were conducted using GraphPad Prism software. p<0.05 was considered to be statistically significant.

NCI-H460-luc = assay: CellTiter-Glo anti-proliferation assay, NCI-H460-luc; type: cell-based
Method: The anti-proliferation effect of 2 compounds (the compound of formula (I) and temozolomide) in 7 CNS metastasis cell lines (MOLT-4-luc, Nalm-6-luc, NCI-H460-luc, ACHN-luc2, PC-9-luc, H1975-luc, and KM12-luc) was evaluated.
The plating of cells and compound treatments are shown below in the plate map (Table 12). One plate was needed for the test of 2 compounds (the compound of formula (I) and temozolomide) in one cell line. The compound of formula (I) was tested from 10 μM, 3-fold serial dilution. Temozolomide was tested from 100 μM, 3-fold serial dilution.
All the cell lines were maintained in culture conditions at 37° C. in an atmosphere with 5% CO2 in air. The tumor cells were routinely subcultured. The cells growing in an exponential growth phase were harvested and counted for plating.
Cells were counted by haemocytometer with Trypan blue staining. Next, 135 μL of cell suspension were plated into the assay plates according to the plate map and 135 μL of assay medium into the blank wells. The plates were incubated at 37° C., 5% CO2, 95% air and 100% relative humidity overnight.
(§1) 4.4.4 Compound Plate (10×) Preparation and Compound Treatment • 10× concentrate compound plate preparation: Add 198 μL of assay medium into each well of the V-bottom plate; then transfer 2 μL of the stock compound solution of each concentration from the stock plate. Add 2 μL of DMSO into the Blank and Control wells. Pipette up and down to mix well. This V-plate is designated as the 10× concentrate compound plate. • For day 0 plate, add 15 μL of the DMSO-medium into the Control wells. The final DMSO concentration was 0.1%. Then directly proceed to cell viability assay. • For assay plate, add 15 μL of the compound-medium of each well from the 10× concentrate compound plate into the cells in 96-well assay plate according to the plate map. Add 15 μL of the DMSO-medium into the Blank and Control wells. The final DMSO concentration was 0.1%. • Return the assay plate into incubator and incubate for 6 days.
(§2) The procedures were performed according to the Promega CellTiter-Glo Luminescent Cell Viability Assay Kit manual (Promega-G7573). • The CellTiter-Glo buffer was thawed and equilibrated to room temperature prior to use. • CellTiter-Glo Substrate was equilibrated to room temperature prior to use. • The entire liquid volume of CellTiter-Glo Buffer was transferred into the amber bottle containing CellTiter-Glo Substrate to reconstitute the lyophilized enzyme/substrate mixture. This forms the CellTiter-Glo Reagent. • The contents were mixed by gently vortexing to obtain a homogeneous solution. • The plate was equilibrated and its contents to room temperature for approximately 30 minutes. 75 μL (equal to the half volume of culture medium present in each well) CellTiter-Glo • Reagent was added in each well. Plates were covered with aluminum foil to protect from light. • The contents were mixed for 2 minutes on an orbital shaker to induce cell lysis. • The plate was incubated at room temperature for 20 minutes to stabilize luminescent signal. • Record luminescence on the 2104 EnVision plate reader.
(§3) Inhibition rate (IR) of the tested compounds was determined by the following formula: IR (%)=(1−(RLU compound−RLU day0)/(RLU control−RLU day0))*100%. The inhibitions of different dose of compound were calculated in Excel file, and then were used to plot inhibition curves and evaluate related parameters, such as Min (%), Max (%) and GI50. The data were interpreted by GraphPad Prism.

SK-MEL-24 = assay: Cell viability assay, melanoma cell line SK-MEL-24; type: cell-based
Method: as §1
as §2, with “This forms the CellTiter-Glo Reagent. • The contents were mixed by gently vortexing to obtain a homogeneous solution. • The plate was equilibrated and its contents to room temperature for approximately 30 minutes. 75 μL (equal to the half volume of culture medium present in each well) CellTiter-Glo • Reagent was added in each well.” left out
as §3, with “The data were interpreted by GraphPad Prism.” left out

[1] = inhibition rate, 6 days, Compound (I) from 10 μM, temozolomide from 100 μM, 3-fold, 9 points

CC(C)N1CCOc2c(F)cc(-c3nc(Nc4ccc(C5CCN(C)CC5)cn4)ncc3F)cc21 [Compound (I), 5-fluoro-4-(8-fluoro-4-isopropyl-3,4-dihydro-2H-benzo[b][1,4]oxazin-6-yl)-N-(5-(1-methylpiperidin-4-yl)pyridin-2-yl)pyrimidin-2-amine]
T/C (22Rv1 tumors; 10 mg/kg QD): 61.13%
TGI (22Rv1 tumors; 10 mg/kg QD): 40.49%
T/C (22Rv1 tumors; Compound (I) 30 mg/kg QD): 28.34%
TGI (22Rv1 tumors; Compound (I) 30 mg/kg QD): 74.71%
Tumor volume (mean ± SEM) (22Rv1 tumors; Group 3, 10 mg/kg PO QD, day 0): 94 ± 5 mm^3
Tumor volume (mean ± SEM) (22Rv1 tumors; Group 3, 10 mg/kg PO QD, day 3): 154 ± 12 mm^3
Tumor volume (mean ± SEM) (22Rv1 tumors; Group 3, 10 mg/kg PO QD, day 7): 257 ± 28 mm^3
Tumor volume (mean ± SEM) (22Rv1 tumors; Group 3, 10 mg/kg PO QD, day 10): 378 ± 40 mm^3
Tumor volume (mean ± SEM) (22Rv1 tumors; Group 3, 10 mg/kg PO QD, day 14): 598 ± 58 mm^3
Tumor volume (mean ± SEM) (22Rv1 tumors; Group 3, 10 mg/kg PO QD, day 17): 825 ± 87 mm^3
Tumor volume (mean ± SEM) (22Rv1 tumors; Group 3, 10 mg/kg PO QD, day 21): 1152 ± 114 mm^3
Tumor volume (mean ± SEM) (22Rv1 tumors; Group 3, 10 mg/kg PO QD, day 24): 1409 ± 102 mm^3
Tumor volume (mean ± SEM) (22Rv1 tumors; Group 4, 30 mg/kg PO QD, day 0): 94 ± 4 mm^3
Tumor volume (mean ± SEM) (22Rv1 tumors; Group 4, 30 mg/kg PO QD, day 3): 131 ± 13 mm^3
Tumor volume (mean ± SEM) (22Rv1 tumors; Group 4, 30 mg/kg PO QD, day 7): 165 ± 25 mm^3
Tumor volume (mean ± SEM) (22Rv1 tumors; Group 4, 30 mg/kg PO QD, day 10): 188 ± 30 mm^3
Tumor volume (mean ± SEM) (22Rv1 tumors; Group 4, 30 mg/kg PO QD, day 14): 289 ± 40 mm^3
Tumor volume (mean ± SEM) (22Rv1 tumors; Group 4, 30 mg/kg PO QD, day 17): 398 ± 60 mm^3
Tumor volume (mean ± SEM) (22Rv1 tumors; Group 4, 30 mg/kg PO QD, day 21): 546 ± 67 mm^3
Tumor volume (mean ± SEM) (22Rv1 tumors; Group 4, 30 mg/kg PO QD, day 24): 653 ± 64 mm^3
GI50 (NCI-H460-luc; NCI-H460-Luc, 144 h, 6 days incubation, read-out: Absolute GI50): 0.228 µM
Max (%) (NCI-H460-luc; [1]): 101.1%
Min (%) (NCI-H460-luc; [1]): 1.9%
GI50 (SK-MEL-24; Homo sapiens, SK-MEL-24, read-out: Absolute GI50): 0.151 µM
Max (%) (SK-MEL-24; inhibition rate): 113.43%
Min (%) (SK-MEL-24; inhibition rate): 1.36%
